Results published in ChEMBL document CHEMBL1150266, “Design and synthesis of conformationally constrained glucagon-like peptide-1 derivatives with increased plasma stability and prolonged in vivo activity” (J Med Chem, 2008).
Where a SMILES comes first, the peptide text is derived from it. Bridges are numbered along the chain shown (N, C = ends). [ ]: non-standard residue; d: D form. Phe(4-COOH) = N[C@@H](Cc1ccc(C(=O)O)cc1)C(=O)O

What was measured:
[1] = molecular target: T1, Glucagon-like peptide 1 receptor (Homo sapiens, UniProt P43220); experiment: Displacement of [125I]GLP1 from human GLP1R expressed in CHOK1 cells; assay type: cell-based, CHO-K1
[2] = molecular target: T1, Glucagon-like peptide 1 receptor; experiment: Agonist activity at human GLP1R expressed in CHO cells assessed as increase in cAMP level by cAMP-response element/luciferase activation assay; assay type: functional, cell-based
Plasma = experiment: Stability in human plasma at 1000 ng/mL at 37 degC; assay type: ADME, cell-free

T1 sequence (P43220 whole entry): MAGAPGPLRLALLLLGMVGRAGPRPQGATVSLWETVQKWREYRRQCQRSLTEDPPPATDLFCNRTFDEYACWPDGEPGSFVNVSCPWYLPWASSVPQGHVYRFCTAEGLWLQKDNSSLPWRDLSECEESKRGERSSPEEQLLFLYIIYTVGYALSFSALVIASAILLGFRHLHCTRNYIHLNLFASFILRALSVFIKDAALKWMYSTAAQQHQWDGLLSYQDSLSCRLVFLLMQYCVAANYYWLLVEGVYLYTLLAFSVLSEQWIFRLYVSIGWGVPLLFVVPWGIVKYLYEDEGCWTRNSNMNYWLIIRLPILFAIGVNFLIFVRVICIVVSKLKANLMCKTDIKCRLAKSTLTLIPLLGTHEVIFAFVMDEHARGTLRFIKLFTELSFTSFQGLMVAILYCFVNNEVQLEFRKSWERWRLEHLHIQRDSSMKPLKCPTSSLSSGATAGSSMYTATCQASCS

SMILES | IC50 [1] [nM] | EC50 [2] [nM] | Stability (Plasma)
CC[C@H](C)[C@H](NC(=O)[C@H](Cc1ccccc1)NC(=O)[C@H](CCC(=O)O)NC(=O)[C@@H]1CCCCNC(=O)c2ccc(cc2)C[C@H](NC(=O)[C@H](CO)NC(=O)[C@H](CO)NC(=O)[C@@H](NC(=O)[C@H](CC(=O)O)NC(=O)[C@H](CO)NC(=O)[C@@H](NC(=O)[C@H](Cc2ccccc2)NC(=O)[C@@H](NC(=O)CNC(=O)[C@H](CCC(=O)O)NC(=O)CNC(=O)[C@@H](N)Cc2c[nH]cn2)[C@@H](C)O)[C@@H](C)O)C(C)C)C(=O)N[C@@H](CC(C)C)C(=O)N[C@@H](CCC(=O)O)C(=O)NCC(=O)N[C@@H](CCC(N)=O)C(=O)N[C@@H](C)C(=O)N[C@@H](C)C(=O)N1)C(=O)N[C@@H](C)C(=O)N[C@@H](Cc1c[nH]c2ccccc12)C(=O)N[C@@H](CC(C)C)C(=O)N[C@H](C(=O)N[C@@H](CCCCN)C(=O)NCC(=O)N[C@@H](CCCNC(=N)N)C(=O)NCC(N)=O)C(C)C (H-HGEGTFTSDVSS[Phe(4-COOH)]LEGQAAKEFIAWLVKGRG-NH2; lactam 13-20) | 2000 | 9 | –
CC[C@H](C)[C@H](NC(=O)[C@H](Cc1ccccc1)NC(=O)[C@H](CCC(=O)O)NC(=O)[C@@H]1CCCCNC(=O)C[C@H](NC(=O)[C@H](CCC(=O)O)NC(=O)[C@H](CC(C)C)NC(=O)[C@H](Cc2ccc(O)cc2)NC(=O)[C@H](CO)NC(=O)[C@H](CO)NC(=O)[C@@H](NC(=O)[C@H](CC(=O)O)NC(=O)[C@H](CO)NC(=O)[C@@H](NC(=O)[C@H](Cc2ccccc2)NC(=O)[C@@H](NC(=O)CNC(=O)[C@H](CCC(=O)O)NC(=O)CNC(=O)[C@@H](N)Cc2c[nH]cn2)[C@@H](C)O)[C@@H](C)O)C(C)C)C(=O)N[C@@H](CCC(N)=O)C(=O)N[C@@H](C)C(=O)N[C@@H](C)C(=O)N1)C(=O)N[C@@H](C)C(=O)N[C@@H](Cc1c[nH]c2ccccc12)C(=O)N[C@@H](CC(C)C)C(=O)N[C@H](C(=O)N[C@@H](CCCCN)C(=O)NCC(=O)N[C@@H](CCCNC(=N)N)C(=O)NCC(N)=O)C(C)C (H-HGEGTFTSDVSSYLEDQAAKEFIAWLVKGRG-NH2; lactam 16-20) | 64 | 0.14 | –
CC[C@H](C)[C@H](NC(=O)[C@H](Cc1ccccc1)NC(=O)[C@H](CCC(=O)O)NC(=O)[C@H](CCCCN)NC(=O)[C@H](C)NC(=O)[C@H](C)NC(=O)[C@H](CCC(N)=O)NC(=O)C(C)(C)NC(=O)[C@H](CCC(=O)O)NC(=O)[C@H](CC(C)C)NC(=O)[C@H](Cc1ccc(O)cc1)NC(=O)[C@H](CO)NC(=O)[C@H](CO)NC(=O)[C@@H](NC(=O)[C@H](CC(=O)O)NC(=O)[C@H](CO)NC(=O)[C@@H](NC(=O)[C@H](Cc1ccccc1)NC(=O)[C@@H](NC(=O)CNC(=O)[C@H](CCC(=O)O)NC(=O)CNC(=O)[C@@H](N)Cc1c[nH]cn1)[C@@H](C)O)[C@@H](C)O)C(C)C)C(=O)N[C@@H](C)C(=O)N[C@@H](Cc1c[nH]c2ccccc12)C(=O)N[C@@H](CC(C)C)C(=O)N[C@H](C(=O)N[C@@H](CCCCN)C(=O)NCC(=O)N[C@@H](CCCNC(=N)N)C(=O)NCC(N)=O)C(C)C | 2.9 | – | Stable
CC[C@H](C)[C@H](NC(=O)[C@H](Cc1ccccc1)NC(=O)[C@H](CCC(=O)O)NC(=O)[C@@H]1CCC(=O)NCCCC[C@H](NC(=O)[C@H](CCC(=O)O)NC(=O)[C@H](CC(C)C)NC(=O)[C@H](Cc2ccc(O)cc2)NC(=O)[C@H](CO)NC(=O)[C@H](CO)NC(=O)[C@@H](NC(=O)[C@H](CC(=O)O)NC(=O)[C@H](CO)NC(=O)[C@@H](NC(=O)[C@H](Cc2ccccc2)NC(=O)[C@@H](NC(=O)CNC(=O)[C@H](CCC(=O)O)NC(=O)CNC(=O)[C@@H](N)Cc2c[nH]cn2)[C@@H](C)O)[C@@H](C)O)C(C)C)C(=O)N[C@@H](CCC(N)=O)C(=O)N[C@@H](C)C(=O)N[C@@H](C)C(=O)N1)C(=O)N[C@@H](C)C(=O)N[C@@H](Cc1c[nH]c2ccccc12)C(=O)N[C@@H](CC(C)C)C(=O)N[C@H](C(=O)N[C@@H](CCCCN)C(=O)NCC(=O)N[C@@H](CCCNC(=N)N)C(=O)NCC(N)=O)C(C)C (H-HGEGTFTSDVSSYLEKQAAEEFIAWLVKGRG-NH2; lactam 16-20) | 2.7 | 0.008 | –
CC(C)C[C@H](NC(=O)[C@H](Cc1ccc(O)cc1)NC(=O)[C@H](CO)NC(=O)[C@H](CO)NC(=O)[C@@H](NC(=O)[C@H](CC(=O)O)NC(=O)[C@H](CO)NC(=O)[C@@H](NC(=O)[C@H](Cc1ccccc1)NC(=O)[C@@H](NC(=O)CNC(=O)[C@H](CCC(=O)O)NC(=O)CNC(=O)[C@@H](N)Cc1c[nH]cn1)[C@@H](C)O)[C@@H](C)O)C(C)C)C(=O)N[C@@H](CCC(=O)O)C(=O)NCC(=O)N[C@@H](CCC(N)=O)C(=O)N[C@@H](C)C(=O)N[C@H]1CCC(=O)NCCCC[C@@H](C(=O)N[C@@H](C)C(=O)N[C@@H](Cc2c[nH]c3ccccc23)C(=O)N[C@@H](CC(C)C)C(=O)N[C@H](C(=O)N[C@@H](CCCCN)C(=O)NCC(=O)N[C@@H](CCCNC(=N)N)C(=O)NCC(N)=O)C(C)C)NC(=O)[C@H](Cc2ccccc2)NC(=O)[C@H](CCC(=O)O)NC(=O)[C@H](CCCCN)NC1=O (H-HGEGTFTSDVSSYLEGQAEKEFKAWLVKGRG-NH2; lactam 19-23) | > 1000 | 15 | –

The next lines start with results.

IC50 [1] [nM] | EC50 [2] [nM] | SMILES | Stability (Plasma)
> 500 | 1.8 | CC[C@H](C)[C@H](NC(=O)[C@H](Cc1ccccc1)NC(=O)[C@H](CCC(=O)O)NC(=O)[C@@H]1CCCCNC(=O)CC[C@H](NC(=O)[C@H](CCC(=O)O)NC(=O)[C@H](CC(C)C)NC(=O)[C@H](Cc2ccc(O)cc2)NC(=O)[C@H](CO)NC(=O)[C@H](CO)NC(=O)[C@@H](NC(=O)[C@H](CC(=O)O)NC(=O)[C@H](CO)NC(=O)[C@@H](NC(=O)[C@H](Cc2ccccc2)NC(=O)[C@@H](NC(=O)CNC(=O)[C@H](CCC(=O)O)NC(=O)CNC(=O)[C@@H](N)Cc2c[nH]cn2)[C@@H](C)O)[C@@H](C)O)C(C)C)CC(=O)N[C@@H](CCC(N)=O)C(=O)N[C@@H](C)C(=O)N[C@@H](C)C(=O)N1)C(=O)N[C@@H](C)C(=O)N[C@@H](Cc1c[nH]c2ccccc12)C(=O)N[C@@H](CC(C)C)C(=O)N[C@H](C(=O)N[C@@H](CCCCN)C(=O)NCC(=O)N[C@@H](CCCNC(=N)N)C(=O)NCC(N)=O)C(C)C | –
17 | 0.077 | CC[C@H](C)[C@H](NC(=O)[C@H](Cc1ccccc1)NC(=O)[C@H](CCC(=O)O)NC(=O)[C@H](CCCCN)NC(=O)[C@H](C)NC(=O)[C@H](C)NC(=O)[C@@H]1CCCCNC(=O)CC[C@H](NC(=O)[C@H](CO)NC(=O)[C@H](CO)NC(=O)[C@@H](NC(=O)[C@H](CC(=O)O)NC(=O)[C@H](CO)NC(=O)[C@@H](NC(=O)[C@H](Cc2ccccc2)NC(=O)[C@@H](NC(=O)CNC(=O)[C@H](CCC(=O)O)NC(=O)CNC(=O)[C@@H](N)Cc2c[nH]cn2)[C@@H](C)O)[C@@H](C)O)C(C)C)C(=O)N[C@@H](CC(C)C)C(=O)N[C@@H](CCC(=O)O)C(=O)NCC(=O)N1)C(=O)N[C@@H](C)C(=O)N[C@@H](Cc1c[nH]c2ccccc12)C(=O)N[C@@H](CC(C)C)C(=O)N[C@H](C(=O)N[C@@H](CCCCN)C(=O)NCC(=O)N[C@@H](CCCNC(=N)N)C(=O)NCC(N)=O)C(C)C (H-HGEGTFTSDVSSELEGKAAKEFIAWLVKGRG-NH2; lactam 13-17) | –
6.2 | 0.004 | CC[C@H](C)[C@H](NC(=O)[C@H](Cc1ccccc1)NC(=O)[C@H](CCC(=O)O)NC(=O)[C@@H]1CCCCNC(=O)CCC[C@H](NC(=O)[C@H](CCC(=O)O)NC(=O)[C@H](CC(C)C)NC(=O)[C@H](Cc2ccc(O)cc2)NC(=O)[C@H](CO)NC(=O)[C@H](CO)NC(=O)[C@@H](NC(=O)[C@H](CC(=O)O)NC(=O)[C@H](CO)NC(=O)[C@@H](NC(=O)[C@H](Cc2ccccc2)NC(=O)[C@@H](NC(=O)CNC(=O)[C@H](CCC(=O)O)NC(=O)CNC(=O)[C@@H](N)Cc2c[nH]cn2)[C@@H](C)O)[C@@H](C)O)C(C)C)C(=O)N[C@@H](CCC(N)=O)C(=O)N[C@@H](C)C(=O)N[C@@H](C)C(=O)N1)C(=O)N[C@@H](C)C(=O)N[C@@H](Cc1c[nH]c2ccccc12)C(=O)N[C@@H](CC(C)C)C(=O)N[C@H](C(=O)N[C@@H](CCCCN)C(=O)NCC(=O)N[C@@H](CCCNC(=N)N)C(=O)NCC(N)=O)C(C)C | –
3.6 | 0.006 | CC[C@H](C)[C@H](NC(=O)[C@H](Cc1ccccc1)NC(=O)[C@H](CCC(=O)O)NC(=O)[C@H](CCCCN)NC(=O)[C@H](C)NC(=O)[C@H](C)NC(=O)[C@H](CCC(N)=O)NC(=O)[C@@H]1CCCCNC(=O)CC[C@H](NC(=O)[C@H](CO)NC(=O)[C@@H](NC(=O)[C@H](CC(=O)O)NC(=O)[C@H](CO)NC(=O)[C@@H](NC(=O)[C@H](Cc2ccccc2)NC(=O)[C@@H](NC(=O)CNC(=O)[C@H](CCC(=O)O)NC(=O)CNC(=O)[C@@H](N)Cc2cnc[nH]2)[C@@H](C)O)[C@@H](C)O)C(C)C)C(=O)N[C@@H](Cc2ccc(O)cc2)C(=O)N[C@@H](CC(C)C)C(=O)N[C@@H](CCC(=O)O)C(=O)N1)C(=O)N[C@@H](C)C(=O)N[C@@H](Cc1c[nH]c2ccccc12)C(=O)N[C@@H](CC(C)C)C(=O)N[C@H](C(=O)N[C@@H](CCCCN)C(=O)NCC(=O)N[C@@H](CCCNC(=N)N)C(=O)NCC(N)=O)C(C)C (H-HGEGTFTSDVSEYLEKQAAKEFIAWLVKGRG-NH2; lactam 12-16) | Stable
16 | 0.024 | CC[C@H](C)[C@@H]1NC(=O)[C@H](Cc2ccccc2)NC(=O)[C@H](CCC(=O)O)NC(=O)[C@@H](NC(=O)[C@H](C)NC(=O)[C@H](C)NC(=O)[C@H](CCC(N)=O)NC(=O)CNC(=O)[C@H](CCC(=O)O)NC(=O)[C@H](CC(C)C)NC(=O)[C@H](Cc2ccc(O)cc2)NC(=O)[C@H](CO)NC(=O)[C@H](CO)NC(=O)[C@@H](NC(=O)[C@H](CC(=O)O)NC(=O)[C@H](CO)NC(=O)[C@@H](NC(=O)[C@H](Cc2ccccc2)NC(=O)[C@@H](NC(=O)CNC(=O)[C@H](CCC(=O)O)NC(=O)CNC(=O)[C@@H](N)Cc2cnc[nH]2)[C@@H](C)O)[C@@H](C)O)C(C)C)CCC(=O)NCCCC[C@@H](C(=O)N[C@@H](Cc2c[nH]c3ccccc23)C(=O)N[C@@H](CC(C)C)C(=O)N[C@H](C(=O)N[C@@H](CCCCN)C(=O)NCC(=O)N[C@@H](CCCNC(=N)N)C(=O)NCC(N)=O)C(C)C)NC1=O | –
